# Results: PubChem BioAssay (NCI)
#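 Cultured in 96-well plates, cells were exposed to test compound for 48 hours across five concentrations. GI50 is the concentration that inhibits growth by half. The concentration for full growth arrest is given as TGI.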
# Columns and labels:
# Experiment in all cases: NCI anticancer screen, dose series, 48 h
# HCT-15 colon = test system: HCT-15 colon
# EKVX NSCLC = test system: EKVX NSCLC
# HCC-2998 colon = test system: HCC-2998 colon
# SN12C renal = test system: SN12C renal
# HCT-116 colon = test system: HCT-116 colon
# OVCAR-3 ovarian = test system: OVCAR-3 ovarian
# A549 NSCLC = test system: A549 NSCLC
# SNB-19 CNS = test system: SNB-19 CNS
# BT-549 breast = test system: BT-549 breast
# NCI-H522 lung = test system: NCI-H522 lung
# SW-620 colon = test system: SW-620 colon
# ACHN renal = test system: ACHN renal
# UACC-62 melanoma = test system: UACC-62 melanoma
# DU-145 prostate = test system: DU-145 prostate
# NCI-H226 lung = test system: NCI-H226 lung
# NCI-H460 lung = test system: NCI-H460 lung
# SF-539 CNS = test system: SF-539 CNS
# SK-MEL-28 melanoma = test system: SK-MEL-28 melanoma
# MALME-3M melanoma = test system: MALME-3M melanoma
# OVCAR-4 ovarian = test system: OVCAR-4 ovarian
# KM12 colon = test system: KM12 colon
# HL-60(TB) leukemia = test system: HL-60(TB) leukemia
# UACC-257 melanoma = test system: UACC-257 melanoma
# COLO 205 colon = test system: COLO 205 colon
# NCI-H23 lung = test system: NCI-H23 lung
# SK-MEL-2 melanoma = test system: SK-MEL-2 melanoma
# PC-3 prostate = test system: PC-3 prostate
# NCI/ADR-RES ovarian = test system: NCI/ADR-RES ovarian
# RXF 393 renal = test system: RXF 393 renal
# A498 renal = test system: A498 renal
# HOP-62 NSCLC = test system: HOP-62 NSCLC
# SF-295 CNS = test system: SF-295 CNS
# M14 melanoma = test system: M14 melanoma
# LOX IMVI melanoma = test system: LOX IMVI melanoma
# SK-MEL-5 melanoma = test system: SK-MEL-5 melanoma
# MDA-MB-231 breast = test system: MDA-MB-231 breast
# HT29 colon = test system: HT29 colon
# UO-31 renal = test system: UO-31 renal
# MOLT-4 leukemia = test system: MOLT-4 leukemia
# MCF7 breast = test system: MCF7 breast
# 786-0 renal = test system: 786-0 renal
# SK-OV-3 ovarian = test system: SK-OV-3 ovarian
# OVCAR-5 ovarian = test system: OVCAR-5 ovarian
# SF-268 CNS = test system: SF-268 CNS
# SR leukemia = test system: SR leukemia
# OVCAR-8 ovarian = test system: OVCAR-8 ovarian
# MDA-MB-435 = test system: MDA-MB-435
# K-562 leukemia = test system: K-562 leukemia
# SNB-75 CNS = test system: SNB-75 CNS
# TK-10 renal = test system: TK-10 renal
# T-47D breast = test system: T-47D breast
# IGROV1 ovarian = test system: IGROV1 ovarian
# U251 CNS = test system: U251 CNS
# CAKI-1 renal = test system: CAKI-1 renal
# HOP-92 NSCLC = test system: HOP-92 NSCLC
# CCRF-CEM leukemia = test system: CCRF-CEM leukemia
smiles,measurement,setting,value
COCC(=O)Oc1cc(-c2ccc(C)cc2C)c(OC(=O)COC)c(-c2ccc(C)cc2C)c1,GI50,HCT-15 colon,580 nM
same,TGI,HCT-15 colon,> 100 µM
same,GI50,EKVX NSCLC,4.36 µM
same,TGI,EKVX NSCLC,58.9 µM
same,GI50,HCC-2998 colon,13.5 µM
same,TGI,HCC-2998 colon,28.9 µM
same,GI50,SN12C renal,9.11 µM
same,TGI,SN12C renal,28.7 µM
same,GI50,HCT-116 colon,0.797 µM
same,TGI,HCT-116 colon,14.4 µM
same,GI50,OVCAR-3 ovarian,3.64 µM
same,TGI,OVCAR-3 ovarian,16.5 µM
same,GI50,A549 NSCLC,4.73 µM
same,TGI,A549 NSCLC,29.1 µM
same,GI50,SNB-19 CNS,11.9 µM
same,TGI,SNB-19 CNS,43.6 µM
same,GI50,BT-549 breast,7.7 µM
same,TGI,BT-549 breast,22.9 µM
same,GI50,NCI-H522 lung,4.07 µM
same,TGI,NCI-H522 lung,18.3 µM
same,GI50,SW-620 colon,5.09 µM
same,TGI,SW-620 colon,18.3 µM
same,GI50,ACHN renal,9.07 µM
same,TGI,ACHN renal,> 100 µM
same,GI50,UACC-62 melanoma,3.43 µM
same,TGI,UACC-62 melanoma,31.9 µM
same,GI50,DU-145 prostate,10.3 µM
same,TGI,DU-145 prostate,30.2 µM
same,GI50,NCI-H226 lung,8.59 µM
same,TGI,NCI-H226 lung,46.9 µM
same,GI50,NCI-H460 lung,0.592 µM
same,TGI,NCI-H460 lung,13.7 µM
same,GI50,SF-539 CNS,12 µM
same,TGI,SF-539 CNS,28.8 µM
same,GI50,SK-MEL-28 melanoma,11.2 µM
same,TGI,SK-MEL-28 melanoma,23.6 µM
same,GI50,MALME-3M melanoma,9.2 µM
same,TGI,MALME-3M melanoma,25.5 µM
same,GI50,OVCAR-4 ovarian,3.33 µM
same,TGI,OVCAR-4 ovarian,23.6 µM
same,GI50,KM12 colon,4.45 µM
same,TGI,KM12 colon,19.5 µM
same,GI50,HL-60(TB) leukemia,2.21 µM
same,TGI,HL-60(TB) leukemia,77.4 µM
same,GI50,UACC-257 melanoma,8.23 µM
same,TGI,UACC-257 melanoma,35.9 µM
same,GI50,COLO 205 colon,8.76 µM
same,TGI,COLO 205 colon,23.8 µM
same,GI50,NCI-H23 lung,5.61 µM
same,TGI,NCI-H23 lung,23.4 µM
same,GI50,SK-MEL-2 melanoma,14.7 µM
same,TGI,SK-MEL-2 melanoma,33.9 µM
same,GI50,PC-3 prostate,0.824 µM
same,TGI,PC-3 prostate,35.1 µM
same,GI50,NCI/ADR-RES ovarian,5.84 µM
same,TGI,NCI/ADR-RES ovarian,55.3 µM
same,GI50,RXF 393 renal,11.2 µM
same,TGI,RXF 393 renal,46.1 µM
same,GI50,A498 renal,5.57 µM
same,TGI,A498 renal,19.9 µM
same,GI50,HOP-62 NSCLC,11.7 µM
same,TGI,HOP-62 NSCLC,28.1 µM
same,GI50,SF-295 CNS,5.58 µM
same,TGI,SF-295 CNS,29.6 µM
same,GI50,M14 melanoma,7.69 µM
same,TGI,M14 melanoma,21.6 µM
same,GI50,LOX IMVI melanoma,1.12 µM
same,TGI,LOX IMVI melanoma,15.5 µM
same,GI50,SK-MEL-5 melanoma,2.04 µM
same,TGI,SK-MEL-5 melanoma,15.7 µM
same,GI50,MDA-MB-231 breast,6.03 µM
same,TGI,MDA-MB-231 breast,26.5 µM
same,GI50,HT29 colon,4.02 µM
same,TGI,HT29 colon,21.8 µM
same,GI50,UO-31 renal,2.47 µM
same,TGI,UO-31 renal,15.5 µM
same,GI50,MOLT-4 leukemia,2.96 µM
same,TGI,MOLT-4 leukemia,> 100 µM
same,GI50,MCF7 breast,4.75 µM
same,TGI,MCF7 breast,51.4 µM
same,GI50,786-0 renal,10.7 µM
same,TGI,786-0 renal,48.3 µM
same,GI50,SK-OV-3 ovarian,13.2 µM
same,TGI,SK-OV-3 ovarian,61.5 µM
same,GI50,OVCAR-5 ovarian,21.7 µM
same,TGI,OVCAR-5 ovarian,61 µM
same,GI50,SF-268 CNS,3.91 µM
same,TGI,SF-268 CNS,23.9 µM
same,GI50,SR leukemia,1.59 µM
same,TGI,SR leukemia,> 100 µM
same,GI50,OVCAR-8 ovarian,4.51 µM
same,TGI,OVCAR-8 ovarian,90.3 µM
same,GI50,MDA-MB-435,6.62 µM
same,TGI,MDA-MB-435,30.2 µM
same,GI50,K-562 leukemia,3.56 µM
same,TGI,K-562 leukemia,> 100 µM
same,GI50,SNB-75 CNS,3.22 µM
same,TGI,SNB-75 CNS,20.4 µM
same,GI50,TK-10 renal,20.4 µM
same,TGI,TK-10 renal,> 100 µM
same,GI50,T-47D breast,4.52 µM
same,TGI,T-47D breast,54.9 µM
same,GI50,IGROV1 ovarian,5.56 µM
same,TGI,IGROV1 ovarian,25.3 µM
same,GI50,U251 CNS,2.02 µM
same,TGI,U251 CNS,23 µM
Cn1ncc2c(Sc3ccc(Cl)cc3)ncnc21,GI50,HCT-15 colon,> 100000 nM
same,TGI,HCT-15 colon,> 100 µM
same,GI50,EKVX NSCLC,10.5 µM
same,TGI,EKVX NSCLC,> 100 µM
same,GI50,SN12C renal,7.37 µM
same,TGI,SN12C renal,> 100 µM
same,GI50,HCT-116 colon,55.1 µM
same,TGI,HCT-116 colon,> 100 µM
same,GI50,OVCAR-3 ovarian,36.5 µM
same,TGI,OVCAR-3 ovarian,> 100 µM
same,GI50,A549 NSCLC,18.8 µM
same,TGI,A549 NSCLC,> 100 µM
same,GI50,SNB-19 CNS,26.9 µM
same,TGI,SNB-19 CNS,> 100 µM
same,GI50,BT-549 breast,27.3 µM
same,TGI,BT-549 breast,> 100 µM
same,GI50,SW-620 colon,> 100 µM
same,TGI,SW-620 colon,> 100 µM
same,GI50,ACHN renal,> 100 µM
same,TGI,ACHN renal,> 100 µM
same,GI50,UACC-62 melanoma,77.8 µM
same,TGI,UACC-62 melanoma,> 100 µM
same,GI50,DU-145 prostate,36.1 µM
same,TGI,DU-145 prostate,> 100 µM
same,GI50,NCI-H226 lung,36.5 µM
same,TGI,NCI-H226 lung,> 100 µM
same,GI50,NCI-H460 lung,21.3 µM
same,TGI,NCI-H460 lung,> 100 µM
same,GI50,SF-539 CNS,68.1 µM
same,TGI,SF-539 CNS,> 100 µM
same,GI50,SK-MEL-28 melanoma,> 100 µM
same,TGI,SK-MEL-28 melanoma,> 100 µM
same,GI50,MALME-3M melanoma,57.4 µM
same,TGI,MALME-3M melanoma,> 100 µM
same,GI50,OVCAR-4 ovarian,36 µM
same,TGI,OVCAR-4 ovarian,> 100 µM
same,GI50,KM12 colon,11.6 µM
same,TGI,KM12 colon,> 100 µM
same,GI50,HL-60(TB) leukemia,11.3 µM
same,TGI,HL-60(TB) leukemia,> 100 µM
same,GI50,CAKI-1 renal,15.4 µM
same,TGI,CAKI-1 renal,> 100 µM
same,GI50,UACC-257 melanoma,> 100 µM
same,TGI,UACC-257 melanoma,> 100 µM
same,GI50,COLO 205 colon,> 100 µM
same,TGI,COLO 205 colon,> 100 µM
same,GI50,NCI-H23 lung,15.9 µM
same,TGI,NCI-H23 lung,> 100 µM
same,GI50,SK-MEL-2 melanoma,> 100 µM
same,TGI,SK-MEL-2 melanoma,> 100 µM
same,GI50,PC-3 prostate,7.03 µM
same,TGI,PC-3 prostate,> 100 µM
same,GI50,NCI/ADR-RES ovarian,21.7 µM
same,TGI,NCI/ADR-RES ovarian,> 100 µM
same,GI50,RXF 393 renal,98.4 µM
same,TGI,RXF 393 renal,> 100 µM
same,GI50,HOP-62 NSCLC,28.8 µM
same,TGI,HOP-62 NSCLC,> 100 µM
same,GI50,SF-295 CNS,9.58 µM
same,TGI,SF-295 CNS,> 100 µM
same,GI50,M14 melanoma,93.5 µM
same,TGI,M14 melanoma,> 100 µM
same,GI50,LOX IMVI melanoma,12 µM
same,TGI,LOX IMVI melanoma,> 100 µM
same,GI50,SK-MEL-5 melanoma,51.5 µM
same,TGI,SK-MEL-5 melanoma,> 100 µM
same,GI50,MDA-MB-231 breast,13.2 µM
same,TGI,MDA-MB-231 breast,> 100 µM
same,GI50,HT29 colon,> 100 µM
same,TGI,HT29 colon,> 100 µM
same,GI50,UO-31 renal,5.53 µM
same,TGI,UO-31 renal,> 100 µM
same,GI50,HOP-92 NSCLC,3.31 µM
same,TGI,HOP-92 NSCLC,> 100 µM
same,GI50,MOLT-4 leukemia,10.3 µM
same,TGI,MOLT-4 leukemia,> 100 µM
same,GI50,CCRF-CEM leukemia,4.8 µM
same,TGI,CCRF-CEM leukemia,> 100 µM
same,GI50,MCF7 breast,> 100 µM
same,TGI,MCF7 breast,> 100 µM
same,GI50,786-0 renal,44.1 µM
same,TGI,786-0 renal,> 100 µM
same,GI50,SK-OV-3 ovarian,67.9 µM
same,TGI,SK-OV-3 ovarian,> 100 µM
same,GI50,OVCAR-5 ovarian,> 100 µM
same,TGI,OVCAR-5 ovarian,> 100 µM
same,GI50,SF-268 CNS,7.26 µM
same,TGI,SF-268 CNS,> 100 µM
same,GI50,SR leukemia,20.6 µM
same,TGI,SR leukemia,> 100 µM
same,GI50,OVCAR-8 ovarian,> 100 µM
same,TGI,OVCAR-8 ovarian,> 100 µM
same,GI50,MDA-MB-435,22.5 µM
same,TGI,MDA-MB-435,> 100 µM
same,GI50,K-562 leukemia,> 100 µM
same,TGI,K-562 leukemia,> 100 µM
same,GI50,SNB-75 CNS,22.9 µM
same,TGI,SNB-75 CNS,> 100 µM
same,GI50,TK-10 renal,> 100 µM
same,TGI,TK-10 renal,> 100 µM
same,GI50,T-47D breast,14.4 µM
same,TGI,T-47D breast,> 100 µM
same,GI50,IGROV1 ovarian,4.36 µM
same,TGI,IGROV1 ovarian,49.8 µM
same,GI50,U251 CNS,16.2 µM
same,TGI,U251 CNS,> 100 µM
